Test results as given in PubChem BioAssay (NCI).
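Dose response: 5 concentrations. Exposure: 48 h. Format: 96-well plates. Endpoint: linear interpolation; highest concentration if not reached. GI50 is the concentration that inhibits growth by half. TGI denotes the concentration required for complete inhibition of growth.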

Tests used:
Assay in all cases: growth of human tumour cells (NCI), 48 h
[1] = tested on: SK-MEL-28 melanoma
[2] = tested on: MDA-MB-231 breast
[3] = tested on: MCF7 breast
[4] = tested on: SW-620 colon
[5] = tested on: DU-145 prostate
[6] = tested on: SR leukemia
[7] = tested on: HT29 colon
[8] = tested on: SNB-19 CNS
[9] = tested on: HOP-62 NSCLC
[10] = tested on: OVCAR-3 ovarian
[11] = tested on: TK-10 renal
[12] = tested on: HOP-92 NSCLC
[13] = tested on: HCT-15 colon
[14] = tested on: NCI-H23 lung
[15] = tested on: NCI-H460 lung
[16] = tested on: SF-295 CNS
[17] = tested on: 786-0 renal
[18] = tested on: PC-3 prostate
[19] = tested on: HCT-116 colon
[20] = tested on: NCI/ADR-RES ovarian
[21] = tested on: SK-OV-3 ovarian
[22] = tested on: OVCAR-4 ovarian
[23] = tested on: MALME-3M melanoma
[24] = tested on: MOLT-4 leukemia
[25] = tested on: IGROV1 ovarian
[26] = tested on: SF-268 CNS
[27] = tested on: OVCAR-8 ovarian
[28] = tested on: U251 CNS
[29] = tested on: T-47D breast
[30] = tested on: K-562 leukemia
[31] = tested on: RPMI-8226 leukemia
[32] = tested on: EKVX NSCLC
[33] = tested on: HL-60(TB) leukemia
[34] = tested on: M14 melanoma
[35] = tested on: A549 NSCLC
[36] = tested on: UO-31 renal
[37] = tested on: LOX IMVI melanoma
[38] = tested on: RXF 393 renal
[39] = tested on: NCI-H522 lung
[40] = tested on: BT-549 breast
[41] = tested on: OVCAR-5 ovarian
[42] = tested on: SNB-75 CNS
[43] = tested on: CCRF-CEM leukemia
[44] = tested on: SN12C renal
[45] = tested on: KM12 colon
[46] = tested on: NCI-H226 lung
[47] = tested on: SF-539 CNS
[48] = tested on: ACHN renal
[49] = tested on: UACC-257 melanoma
[50] = tested on: HCC-2998 colon
[51] = tested on: A498 renal
[52] = tested on: UACC-62 melanoma
[53] = tested on: HS 578T breast
[54] = tested on: CAKI-1 renal
[55] = tested on: SK-MEL-2 melanoma
[56] = tested on: MDA-MB-435
[57] = tested on: COLO 205 colon
[58] = tested on: SK-MEL-5 melanoma

CCOC(=O)c1cc(C(=O)c2ccc(OC)cc2)n2ccc(/C=C/c3cc[n+](CC(=O)c4ccc(OC)cc4)cc3)cc12
GI50 [1]: 1870 nM | TGI [1]: 3.69 µM | GI50 [2]: 1580 nM | TGI [2]: 3.22 µM | GI50 [3]: 1510 nM | TGI [3]: 3.56 µM | GI50 [4]: 1720 nM | TGI [4]: 4.02 µM | GI50 [5]: 2.05 µM | TGI [5]: 5.16 µM | GI50 [6]: 367 nM | TGI [6]: 2290 nM | GI50 [7]: 1810 nM | TGI [7]: 4.55 µM | GI50 [8]: 1.73 µM | TGI [8]: 4.06 µM | GI50 [9]: 3400 nM | TGI [9]: 36.8 µM | GI50 [10]: 1520 nM | TGI [10]: 3 µM | GI50 [11]: 2.01 µM | TGI [11]: 5.76 µM | GI50 [12]: 1230 nM | TGI [12]: 3.15 µM | GI50 [13]: 5.67 µM | TGI [13]: > 100 µM | GI50 [14]: 2220 nM | TGI [14]: 5.5 µM | GI50 [15]: 1560 nM | TGI [15]: 3.56 µM | GI50 [16]: > 100000 nM | TGI [16]: > 100 µM | GI50 [17]: 1980 nM | TGI [17]: 3.94 µM | GI50 [18]: 2030 nM | TGI [18]: 5.96 µM | GI50 [19]: 1550 nM | TGI [19]: 3.36 µM | GI50 [20]: > 100 µM | TGI [20]: > 100 µM | GI50 [21]: > 100 µM | TGI [21]: > 100 µM | GI50 [22]: 1260 nM | TGI [22]: 2.94 µM | GI50 [23]: 1670 nM | TGI [23]: 3.66 µM | GI50 [24]: 1910 nM | TGI [24]: 5.53 µM | GI50 [25]: 1.74 µM | TGI [25]: 4.46 µM | GI50 [26]: 2090 nM | TGI [26]: 4.52 µM | GI50 [27]: 2.02 µM | TGI [27]: 8.32 µM | GI50 [28]: 1680 nM | TGI [28]: 4.57 µM | GI50 [29]: 1910 nM | TGI [29]: 4.43 µM | GI50 [30]: 567 nM | TGI [30]: 3.31 µM | GI50 [31]: 1650 nM | TGI [31]: 4.85 µM | GI50 [32]: 2800 nM | TGI [32]: > 100 µM | GI50 [33]: 1780 nM | TGI [33]: 4.24 µM | GI50 [34]: 1770 nM | TGI [34]: 3.8 µM | GI50 [35]: 3.96 µM | TGI [35]: > 100 µM | GI50 [36]: > 100000 nM | TGI [36]: > 100 µM | GI50 [37]: 1510 nM | TGI [37]: 3.66 µM

CC(=O)O[C@@H]1C2CCC3C(CC[C@@]4(C)C3CC[C@@H]4C(C)N(C)C)[C@@]2(C)CC[C@@H]1NC(=O)C=C(C)C (stereo partly drawn)
GI50 [1]: 1730 nM | TGI [1]: 3.27 µM | GI50 [38]: 1460 nM | TGI [38]: 3.21 µM | GI50 [2]: 2240 nM | TGI [2]: 5.19 µM | GI50 [3]: 1670 nM | TGI [3]: 4.38 µM | GI50 [4]: 1730 nM | TGI [4]: 3.48 µM | GI50 [39]: 2740 nM | TGI [39]: 8.58 µM | GI50 [5]: 4 µM | TGI [5]: 16.4 µM | GI50 [40]: 6.31 µM | TGI [40]: 22.5 µM | GI50 [41]: 3.33 µM | TGI [41]: 14.1 µM | GI50 [7]: 552 nM | TGI [7]: 1.97 µM | GI50 [42]: 2350 nM | TGI [42]: 9.31 µM | GI50 [43]: 2070 nM | TGI [43]: 6.59 µM | GI50 [8]: 6.89 µM | TGI [8]: 18.7 µM | GI50 [44]: 3.2 µM | TGI [44]: 12.3 µM | GI50 [45]: 2660 nM | TGI [45]: 9.5 µM | GI50 [9]: 2250 nM | TGI [9]: 5.62 µM | GI50 [46]: 5.22 µM | TGI [46]: 19.6 µM | GI50 [10]: 2240 nM | TGI [10]: 7.42 µM | GI50 [11]: 5.21 µM | TGI [11]: 17.4 µM | GI50 [12]: 1660 nM | TGI [12]: 10.7 µM | GI50 [13]: 1.39 µM | TGI [13]: 3.45 µM | GI50 [47]: 1340 nM | TGI [47]: 2710 nM | GI50 [14]: 3130 nM | TGI [14]: 14 µM | GI50 [15]: 1670 nM | TGI [15]: 3.31 µM | GI50 [16]: 1850 nM | TGI [16]: 4.42 µM | GI50 [48]: 3.56 µM | TGI [48]: 12.8 µM | GI50 [49]: 2330 nM | TGI [49]: 4.98 µM | GI50 [50]: 1730 nM | TGI [50]: 3.66 µM | GI50 [51]: 2320 nM | TGI [51]: 9.78 µM | GI50 [17]: 2420 nM | TGI [17]: 6.73 µM | GI50 [18]: 2790 nM | TGI [18]: 13.9 µM | GI50 [19]: 1540 nM | TGI [19]: 3.49 µM | GI50 [20]: 4.26 µM | TGI [20]: 17.7 µM | GI50 [52]: 2030 nM | TGI [52]: 3.96 µM | GI50 [53]: 2200 nM | TGI [53]: 6.82 µM | GI50 [21]: 3.61 µM | TGI [21]: 10.3 µM | GI50 [54]: 3.4 µM | TGI [54]: 11.3 µM | GI50 [55]: 2890 nM | TGI [55]: 6.85 µM | GI50 [22]: 3510 nM | TGI [22]: 17.2 µM | GI50 [23]: 1910 nM | TGI [23]: 3.89 µM | GI50 [24]: 2330 nM | TGI [24]: 5.69 µM | GI50 [25]: 4.76 µM | TGI [25]: 16 µM | GI50 [26]: 1560 nM | TGI [26]: 3.31 µM | GI50 [27]: 4.64 µM | TGI [27]: > 35.7 µM | GI50 [56]: 1920 nM | TGI [56]: 4.26 µM | GI50 [57]: 1620 nM | TGI [57]: 3.1 µM | GI50 [28]: 2220 nM | TGI [28]: 8.61 µM | GI50 [29]: 1750 nM | TGI [29]: 6.23 µM | GI50 [30]: 1100 nM | TGI [30]: 3.15 µM | GI50 [31]: 1960 nM | TGI [31]: 5.53 µM | GI50 [32]: 2800 nM | TGI [32]: 16.6 µM | GI50 [33]: 2590 nM | TGI [33]: 6.19 µM | GI50 [34]: 1850 nM | TGI [34]: 3.63 µM | GI50 [35]: 2.58 µM | TGI [35]: 6.27 µM | GI50 [36]: 1500 nM | TGI [36]: 3.33 µM | GI50 [37]: 1470 nM | TGI [37]: 3.09 µM | GI50 [58]: 1380 nM | TGI [58]: 2680 nM
